US12576107B2, “Methods of treating chronic inflammatory diseases” (METIMEDI PHARMACEUTICALS CO., LTD., priority 2018, dated 2026)

Assays:
[1] = test system: hypoxia inducible factor-1α (HIF-1α); assay: Liver fibrosis in vitro experiment, Western blot in LX-2 cells; type: cell-based; settings: 2.5 mM, LX-2 cells (human hepatic stellate cell)
Method: Human Hepatic Stellate cell line, LX-2, was purchased from Sigma-Aldrich (St Louis, MO, USA). The LX-2 cells were maintained in DMEM containing 2% fetal bovine serum (Life Technologies, Gaithersburg, MD, USA), 100 IU/ml penicillin, and 100 μg/ml streptomycin (Welgene, Daegu, South Korea).
(§1) To prepare whole cell lysate, cells were lysed with lysis buffer (1% NP-40, 0.25% sodium deoxycholate, 150 mM NaCl, 1 mM EDTA, 1% Triton X-100, 50 mM Tris-HCl (pH 7.4), 10% Glycerol) with protease inhibitor cocktail (Roche, Basel, Switzerland) and phosphatase inhibitors (NA3VO4 1 mM, NaF 100 mM). Then, protein concentration was measured using the Bicinchoninic acid (BCA) assay kit (Thermo Scientific, Waltham, MA). Whole cell or nuclear lysates were transferred onto polyvinylidene fluoride membranes (Merck Millipore, Billerica, MA, USA). After blocking in 5% non-fat milk (Bio-Rad, Hercules, CA, USA) for 1 h, the membranes were incubated overnight at 4° C. with primary antibody diluted in TBST containing 100 mM Tris-HCl (pH 7.5), 1.5 M NaCl, and 0.5% Tween-20 obtained from Sigma-Aldrich, to which 5% BSA and 0.1% sodium azide (Sigma-Aldrich) had been added. Specific primary antibodies to HIF-1α (1:1000), HIF-2α (1:1000), LDH-A (1:1000), LDH-B (1:1000), TLR-4 (1:1000), NF-κB (1:1000), VEGF (1:1000), α-tubulin (1:1000), Actin (1:1000), and GAPDH (1:5000). […]

lactate dehydrogenase A [2] = assay: Human endothelial cell in vitro experiment, Western blot in HUVEC; type: cell-based; settings: 2.5 mM, human umbilical vein endothelial cells
Method: Human Umbilical Vein Endothelial cell line, HUVEC, was purchased from American Type Culture Collection (Manassas, VA, USA). The HUVEC cells were Endothelial Cell Growth Medium 2 maintained in Endothelial Cell Growth Medium 2 Supplement MIX (PromoCell, Heidelberg, Germany)
as §1

hypoxia-mediated factors = assay: Liver CID in vitro experiment, Western blot in HepG2 cells; type: cell-based, Human; settings: 2.5 mM, HepG2 cells (liver epithelium)
Method: (§2) Human Hepatocellular carcinoma cell line, HepG2, was purchased from American Type Culture Collection (Manassas, VA, USA). The HepG2 cells were maintained in RPMI 1640 containing 10% fetal bovine serum (Life Technologies, Gaithersburg, MD, USA), 100 IU/ml penicillin, and 100 μg/ml streptomycin (Welgene, Daegu, South Korea).
as §1

lactate dehydrogenase A [3] = assay: Immunocytochemistry of lactate dehydrogenase A in ARPE-19 cells; type: cell-based, Human; settings: 2.5 mM, normoxia
Method: as §2, with “retinal pigment epithelium” for “Hepatocellular carcinoma”, “ARPE-19,” for “HepG2,”, “ARPE-19” for “HepG2”, “RPMI1640” for “RPMI 1640”
ARPE-19 and SK-N-SH cells were fixed on bio-coated coverslips (BD bioscience, San Jose, CA, USA) by 4% PFA for 20 min and then incubated with the primary antibodies for 15 h. The primary antibodies were as follows: HIF-1a (1:300, BD Biosciences, San Jose, CA, USA); LDH-A (1:300, Santa Cruz Biotechnology, Santa Cruz, CA, USA); LDH-B (1:300, Santa Cruz Biotechnology, Santa Cruz, CA, USA); NF-κB (1:300, Santa Cruz Biotechnology, Santa Cruz, CA, USA); TLR-4 (1:300, Santa Cruz Biotechnology, Santa Cruz, CA, USA); apoE (1:200, Santa Cruz Biotechnology, Santa Cruz, CA, USA). After PBS wash, the cells were incubated with anti-mouse secondary biotinylated antibody (1:2000, Vector Laboratorie, Burlingame, CA, USA) and visualized with streptavidin conjugated to Fluorescein (Vector Laboratorie, Burlingame, CA, USA). […] Confocal fluorescence images were obtained with confocal laser scanning microscopy (LSCM, Nikon A1+, Tokyo, Japan) under a 60× oil immersion lens.

[4] = test system: collagen-induced rheumatoid arthritis mice; assay: Rheumatoid arthritis model, Type II collagen induction; type: in vivo, DBA1/J mice; settings: 21 days after treatment
Method: Animals. […] Six-week old male DBA1/J mice were obtained from Japan SLC Inc. (Shizuoka, Japan) and bred under specific-pathogen-free (SPF) conditions. All animals were maintained in a 12-hour light/dark cycle at 22-25° C. with free access to food and water.
Preparation of agents. Two mg/mL Type II collagen was mixed with the same volume of complete Freund's adjuvant (CFA) for primary induction of rheumatoid arthritis. Two mg/mL Type II collagen was mixed with the same volume of incomplete Freund's adjuvant (IFA) for secondary induction of rheumatoid arthritis.
Primary induction: 0.1 mL of the mixed solution (Type II collagen+CFA) was injected subcutaneously into the area of 1.5 cm from the base of tail of mice. The administration site and depth were the same in all mice.
Secondary induction: 21 days after primary induction, 0.1 mL of the mixed solution (Type II collagen+IFA) was injected subcutaneously into the area of 1.5 cm from the base of tail of mice. The administration site and depth were the same in all mice.
Histological analysis. The mice foot and knee joint were dissected and fixed (4% paraformaldehyde) and decalcified for 2 days at 4° C. […] Mount with mounting medium.

## CC(O)C(=O)[O-].CC(O)C(=O)[O-].[Ca+2] (stereo not drawn) [calcium lactate]
[1]
  hypoxia inducible factor-1α (HIF-1α), Western blot: decreased
Lactate dehydrogenase A [2]
  hypoxia-mediated factors (lactate dehydrogenase A), Western blot: decreased
hypoxia-mediated factors
  hypoxia-mediated factors, Western blot: changed
Lactate dehydrogenase A [3]
  lactate dehydrogenase A, immunocytochemistry: decreased
[4]; 2 mg/kg daily subcutaneous
  inflammatory edema in the toes and knee joint: clearly decreased
[4]
  morphology of toes and knee joint vs. normal control: morphologically recovered
